# According to patent publication EP4728880A1, “CORDYCEPS SINENSIS FERMENTATION COMPOSITION” (Hangzhou Zhongmeihuadong Pharmaceutical Jiangdong Co., Ltd, priority 2023, dated 2024):
# Where two headings read alike, the source gives them in different places.
# Assays:
# [1] = Hydroxyl radical scavenging rate (Fenton colorimetric method); type: biochemical
# From the text: IV. Detection of hydroxyl radical scavenging rate (Fenton colorimetric method)
# H2O2/Fe^2+ produces a hydroxyl radical through a Fenton reaction, Fe^2+ is oxidized into Fe^3+, and red phenanthroline-Fe^2+ is oxidized into colorless phenanthroline-Fe^3+, so that the maximum absorption peak of the phenanthroline-Fe^2+ disappears at 536 nm. The absorbance change at 530-540 nm may be determined by a spectrophotometer. Thus, content change of the hydroxyl radical can be calculated, that is, the hydroxyl radical scavenging rate or scavenging capacity of the sample can be calculated.
# • 1. 0.2 g of mycelia powder was weighed; 2 mL of purified water was added; the mycelia powder and the water were uniformly mixed; the mixture was placed at a room temperature for standing for 4 h; the solution was centrifuged at 10000 rpm for 10 min; and the supernatant was taken for later use. • 2. Other samples served as reference solutions.
# The spectrophotometer was started for preheating for 30 min; the wavelength was adjusted to 536 nm; and the purified water was subjected to zero setting.
# A blank tube, an undamaged tube, a damaged tube, a control tube and a determination tube were set according to the following table; the solutions were added in sequence; and the solutions were uniformly mixed and placed in a water bath at 37°C for 1 h.
# (§1) Calculation: To-be-tested sample•OH scavenging rate (%)=[(A3-A3')-(A2-A0)]/(A1-A2)×100% • V. Detection methods of adenosine, mannitol, total amino acid content and water were conducted according to the detection method under the fermented Cordyceps sinensis. mycelia powder item in accordance with National Drug Standards. • VI. Detection method of tyrosinase inhibition rate • 1. Preparation of a solution: • (1) Preparation of a PBS: 3.4022 g of potassium dihydrogen phosphate and 5.7055 g of potassium phosphate dibasic trihydrate were respectively weighed and then dissolved with an appropriate amount of distilled water; the volume was fixed in a 1000 mL volumetric flask; the solution was shaken up to obtain the PBS having a pH value of 6.81 and a concentration of 0.05 mol·L-1, and the PBS was kept in a dark place at 4°C in a refrigerator. • (2) Preparation of an L-Dopa solution: 0.0395 g of L-Dopa was precisely weighed and dissolved with the prepared PBS; the solution was transferred into a 100 mL volumetric flask; the volume was fixed; the solution was shaken up and subjected to ultrasonic treatment to obtain the L-Dopa solution of 2 mmol·L-1. The solution was used when prepared. • (3) Preparation of a TYR ([…]) solution: 25 KU of the TYR was totally dissolved with a small amount of PBS; the solution was repeatedly washed for several times; the washing liquid was transferred into the […] volumetric flask; the volume was fixed with the PBS; the liquid was shaken up to obtain a TYR solution of 250 U·mL-1; then the mother solution was diluted to 125 U·mL-1; and the solution was preserved at -20°C in the refrigerator for later use. • 2. Preparation of samples: 250 mg/ml of an erythritol mother solution: 2.5 g of erythritol was weighed, and 10 ml of purified water was added; 250 mg/ml of a mannitol mother solution: 7.5 g of mannitol was weighed, 30 ml of purified water was added, the mixture was heated and dissolved; and the solution was diluted into the needed concentration according to each reaction system and then added into the detection system. • 3. Determination of the sample on TYR inhibitory activity
# [2] = in water, at 25°C; cited from earlier work
# [3] = cited from earlier work
# [4] = test system: tyrosinase; assay: Tyrosinase inhibition rate (L-Dopa substrate, absorbance at 475 nm); type: biochemical; settings: combination of both amounts, negative = activation rate
# Method: as §1
# The reaction system was shown as Table 4.2. […] A calculation formula of the inhibition rate was as follows: when the calculated result was negative, the absolute value of the negative was an activation rate.
# Inhibition rate = ((A1−A2)−(A3−A4))/(A1 −A2) × 100% [formula] • A1: absorbance of a reaction solution with TYR instead of the sample determined at 475 nm; • A2: absorbance of a reaction solution without the sample nor the TYR determined at 475 nm; • A3: absorbance of a reaction solution with both the sample and the TYR determined at 475 nm; • A4: absorbance of a reaction solution with the sample instead of the TYR determined at 475 nm.
# [5] = cited from earlier work; remark: listed apart in the source
# [6] = EGT 0.4 ml (0.02 mg/ml), Adenosine 0.4 ml (0.02 mg/ml), combination 0.2 ml (0.02 mg/ml) + 0.2 ml (0.02 mg/ml)
# [7] = Erythritol 12.5 mg (6.25 mg/ml), Adenosine 0.15 ml (0.75 mg/ml), combination of both amounts
# [8] = Erythritol 12.5 mg (6.25 mg/ml), Adenosine 0.15 ml (2.5 mg/ml), combination of both amounts
# [9] = Erythritol 0.75 mg (3.75 mg/ml), Mannitol 2.5 mg (12.5 mg/ml), combination of both amounts
# [10] = Erythritol 1.5 mg (7.5 mg/ml), Mannitol 2.5 mg (12.5 mg/ml), combination of both amounts
# [11] = Erythritol 1.75 mg (8.75 mg/ml), Mannitol 2.5 mg (12.5 mg/ml), combination of both amounts
# [12] = Erythritol 2 mg (10 mg/ml), Mannitol 2.5 mg (12.5 mg/ml), combination of both amounts
# [13] = Erythritol 2.5 mg (12.5 mg/ml), Mannitol 2.5 mg (12.5 mg/ml), combination of both amounts
# [14] = Erythritol 0.75 mg (3.75 mg/ml), Mannitol 1.25 mg (6.25 mg/ml)
# [15] = Erythritol 1.25 mg (6.25 mg/ml), Mannitol 1.25 mg (6.25 mg/ml)
# [16] = Erythritol 1.75 mg (8.75 mg/ml), Mannitol 2.5 mg (12.5 mg/ml)
"Tyrosinase inhibition rate (%) [4, 14]","Tyrosinase inhibition rate (%) [4, 15]","Tyrosinase inhibition rate (%) [4, 16]",Structure (SMILES),"OH clearance rate (%) [1, 6]","OH clearance rate (%) [1, 7]","OH clearance rate (%) [1, 8]","OH clearance rate (%) ([1]; EGT 0.4 ml (0.05 mg/ml), Erythritol 0.4 ml (0.05 mg/ml), combination 0.2 ml (0.05 mg/ml) + 0.2 ml (0.05 mg/ml))",solubility [2],"OH clearance rate (%) [1, 9]","OH clearance rate (%) [1, 10]","OH clearance rate (%) [1, 11]","OH clearance rate (%) [1, 12]","OH clearance rate (%) [1, 13]","intestinal tolerance ([3]; children aged 4-6 years, beverages containing 15 g)","intestinal tolerance ([3]; healthy volunteers aged 18-24 years, 20-35 g in a liquid form)","intestinal tolerance ([3]; healthy volunteers aged 18-24 years, intake of 50 g)",absorbed in small intestine via passive diffusion ([5]; after ingestion by a human body),"absorbed erythritol oxidized into erythrose in blood ([5]; human body, share of the absorbed amount)"
,,,"Nc1ncnc2c1ncn2[C@@H]1O[C@H](CO)[C@@H](O)[C@H]1O [Adenosine, adenosine]",0.00%,10.57%,7.17%,,,,,,,,,,,,
,,,"C[N+](C)(C)[C@@H](Cc1c[nH]c(=S)[nH]1)C(=O)[O-] [EGT, Ergothioneine]",-5.70%,,,2.08%,,,,,,,,,,,
-1.06%,1.71%,6.39%,"OCC(O)C(O)CO (centres unmarked) [Erythritol, 1,2,3,4-butanetetraol]",,-8.17%,-5.8%,,37%,5.14%,2.44%,11.76%,20.15%,11.45%,the diarrhea and/or a severe intestinal symptom is not observed,good intestinal tolerance without any adverse symptom,symptoms such as diarrhea and nausea were observed,80-90%,5-10%
3.62%,2.51%,2.51%,"OC[C@@H](O)[C@@H](O)[C@H](O)[C@H](O)CO [Mannitol, D-mannitol]",,,,,,17.91%,7.48%,7.48%,7.48%,7.48%,,,,,
